The values that follow come from patent publication EP4342530A1, “SORTILIN MODULATORS” (Insusense ApS, priority 2022, dated 2024).

The structures appear in SMILES notation. pIC50: −log10 of the molar value. “And” between values parts separate entries of the source, which are not always exact repeats. Equal entries are not always repeated.

One test deals with T1, h-Sortilin (Homo sapiens, UniProt Q99523).
T1 sequence (Q99523 78-831): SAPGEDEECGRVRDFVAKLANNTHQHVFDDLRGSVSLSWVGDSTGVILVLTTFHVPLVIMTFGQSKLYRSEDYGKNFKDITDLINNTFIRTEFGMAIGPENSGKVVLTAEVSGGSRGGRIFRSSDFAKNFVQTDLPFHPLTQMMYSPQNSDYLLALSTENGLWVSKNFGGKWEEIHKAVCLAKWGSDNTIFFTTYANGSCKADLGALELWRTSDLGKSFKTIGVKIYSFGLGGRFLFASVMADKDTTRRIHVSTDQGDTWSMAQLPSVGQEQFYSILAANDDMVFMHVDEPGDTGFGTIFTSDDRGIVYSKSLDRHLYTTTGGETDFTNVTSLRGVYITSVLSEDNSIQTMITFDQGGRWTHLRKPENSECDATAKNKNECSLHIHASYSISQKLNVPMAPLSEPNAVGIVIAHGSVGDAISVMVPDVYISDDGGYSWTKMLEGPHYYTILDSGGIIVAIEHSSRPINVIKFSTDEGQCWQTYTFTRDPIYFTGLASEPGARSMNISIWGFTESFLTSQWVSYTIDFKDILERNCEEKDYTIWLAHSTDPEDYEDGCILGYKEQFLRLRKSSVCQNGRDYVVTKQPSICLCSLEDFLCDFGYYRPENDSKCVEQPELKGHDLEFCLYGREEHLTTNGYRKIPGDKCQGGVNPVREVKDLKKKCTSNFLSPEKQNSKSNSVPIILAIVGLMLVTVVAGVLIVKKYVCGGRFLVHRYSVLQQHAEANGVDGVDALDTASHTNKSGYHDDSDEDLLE
Nature of the test: Neurotensin scintillation proximity assay (displacement of [3H]-neurotensin binding). The following applies: 150 nM 6his-Sortilin, 5 nM [3H]-Neurotensin; average of at least 2 determinations; read-out: IC50 [3H]Neurotensin SPA. How it is done: The exemplified compounds of the invention were tested in a Neurotensin (NTS) scintillation proximity assay (SPA). NTS, which is a 13 amino acid neuropeptide, is a sortilin ligand. The IC50 is a measure of the amount of the compound required to inhibit the binding of NTS to sortilin by 50%. The skilled person will recognise that the lower the IC50 value, the less of the compound needed to achieve the desired effect, and as a result, the chances of undesirable off-target effects are reduced.
Compound affinity was determined by measuring the displacement of [3H]-neurotensin binding to h-Sortilin in SPA format. Total volume of 40 µl in 50 mM HEPES pH 7.4 assay buffer containing 100 mM NaCl, 2.0 mM CaCl2, 0.1% BSA and 0.1% Tween-20. Compound pre-incubation for 30 minutes at room temperature with 150 nM of 6his-Sortilin before 5 nM [3H]-Neurotensin and Ni chelate imaging beads (Perkin Elmer) were added, after 6 hours the plate was read on a ViewLux with 360 s exposure time. Dose-response evaluation of compounds was performed with 8 concentrations of drugs (covering 3 decades). IC50 values were calculated by nonlinear regression using the sigmoid concentration-response (variable slope) using CDD Vault software. All values reported are average of at least 2 determinations.
Background: In a scintillation proximity assay essentially only radioactivity close to the scintillant gives light.

The next test deals with T2, Sortilin (Homo sapiens, UniProt Q99523).
T2 construct: purchased Bio-Techne Ltd 3154-ST-050
T2 sequence (Q99523 78-755 limits assumed): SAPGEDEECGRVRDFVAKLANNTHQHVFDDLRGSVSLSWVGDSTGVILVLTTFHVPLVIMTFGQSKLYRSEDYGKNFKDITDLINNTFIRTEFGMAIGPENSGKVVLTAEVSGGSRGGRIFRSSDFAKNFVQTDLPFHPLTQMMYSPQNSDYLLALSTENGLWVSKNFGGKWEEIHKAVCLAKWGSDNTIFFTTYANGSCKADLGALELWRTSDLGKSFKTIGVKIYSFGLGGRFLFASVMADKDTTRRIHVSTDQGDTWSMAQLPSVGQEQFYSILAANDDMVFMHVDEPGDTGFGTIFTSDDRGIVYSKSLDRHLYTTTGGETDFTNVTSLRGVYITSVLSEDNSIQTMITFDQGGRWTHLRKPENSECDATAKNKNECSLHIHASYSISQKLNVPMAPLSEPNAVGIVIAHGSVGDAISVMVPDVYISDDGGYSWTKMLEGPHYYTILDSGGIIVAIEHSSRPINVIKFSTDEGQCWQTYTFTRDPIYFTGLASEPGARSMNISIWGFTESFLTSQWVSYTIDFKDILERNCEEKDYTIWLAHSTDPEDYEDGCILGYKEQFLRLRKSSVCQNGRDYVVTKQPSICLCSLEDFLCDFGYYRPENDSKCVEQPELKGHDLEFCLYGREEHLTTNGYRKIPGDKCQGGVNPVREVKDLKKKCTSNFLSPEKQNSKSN
Nature of the test: Creoptix (GCI) binding kinetics, human Sortilin. The following applies: Species Human, screened at 1 µM, 25 degrees Celsius. The method, then: Creoptix (GCI) method - using SEQ ID NO.4 (Murine sortillin)
A protein, bound to a surface, is bathed in a solution containing potential ligands giving rise to binding kinetics to generate Kon and Koff rates, as well as a Kd.
All buffers described were filtered using a 0.2µm filter (Product number: 10300461, Nalgene) and degassed for 15 minutes prior to use.
A flow cell temperature of 25 degrees Celsius was used throughout the experiment.
A 4PCH chip was conditioned across all flow cells using 0.2 X concentration running buffer (running buffer composition: 1XHBS-N, pH 7.4, 3.4 mM EDTA, 1% DMSO) using pre-set conditioning wizard (WAVE control software) injecting: 0.1 M borate, 1 M NaCl (pH 9) followed by three start-up injections of 0.2 X running buffer.
A buffer exchange was performed and 1x running buffer (1XHBS-N, pH 7.4, 3.4 mM EDTA, 1% DMSO) used during the immobilisation procedure: An initial injection of EDC/NHS (mixed in 1:1 ratio) was performed across all 4-flow cells to activate the surface for amine coupling of ligands.
Recombinant Sortilin aliquots were thawed quickly by hand and centrifuged at 13,300 rpm for 10 minutes. A 10 µg/ml protein solution was then made in pH 5.0 acetate and injected once for 20 minutes over flow-cells 2, 3 and 4 for human, human (flow cells 2 & 3), and mouse Sortilin respectively followed by a 60 second dissociation period.
A final 7-minute passivation injection of 50 mM tris was used across all flow cells.
A flow rate of 10 µl/min was used for all conditioning and immobilisation cycles.
Compounds were screened at 1 µM using the in-built 'intermediate binders' settings: 100 ul/min, 45 s baseline, 25 s association, 300 s dissociation, with blanks every 5th sample and a DMSO correction (1.5 % DMSO at the start and end of the experiment as well as every 20 cycles. An acquisition rate of 10 Hz was used throughout the experiment.
Compounds were screened at a final assay concentration of 1 µM and a final DMSO concentration was 1 %. To achieve this, compounds were diluted in DMSO from 10 mM stocks to 100 µM (100 x final assay concentration) then diluted 1:100 in running buffer which contained no DMSO to establish a final assay concentration of compound of 1 µM and a final DMSO concentration of 1 % [DMSO].
Compounds and DMSO were mixed by plate shaking at 1000 rpm for 60 seconds using a Bioshake instrument.
A flow rate of 100 µl/min was used throughout the experiment.
Data was evaluated using the RAPID kinetic analysis tool in the GCI WAVE_control software with data fitted using a standard 1:1 kinetic BioModel.

The pIC50 is −log10 of the IC50, conventionally taken in molar units. Usually Kd stands for the concentration at which binding is half-saturated. With `CC(C)(C)CC[C@H](N[C@@H](c1ccc2c(c1)CCCC2)C(F)F)C(=O)O` [Example 45], the pIC50 on h-Sortilin is 6.92. Further, binding on Sortilin (Form of Compound Free acid) was put at a Kd of 43.9 nM.

For `CC(C)(C)CC[C@H](NCc1ccc2c(c1)CCOC2)C(=O)O` [Example 1, (S)-2-((isochroman-6-ylmethyl)amino)-5,5-dimethylhexanoic acid], the pIC50 at h-Sortilin was 6.57. On Sortilin (Form of Compound Free acid), this compound showed a dissociation constant (Kd) of 107 nM.

For `CC(C)(C)CC[C@H](NCc1cnc2c(c1)COCC2)C(=O)O` [Example 2, (2S)-5,5-dimethyl-2-[({5H,7H,8H-pyrano[4,3-b]pyridin-3-yl}methyl)amino]hexanoic acid], at h-Sortilin, the pIC50 was 6.46. For the same compound, the Kd at Sortilin (Form of Compound Free acid) was 172 nM.

With `CN1C(=O)COc2ccc(CN[C@@H](CCC(C)(C)C)C(=O)O)cc21` [Example 21, (2S)-5,5-dimethyl-2-{[(4-methyl-3-oxo-3,4-dihydro-2H-1,4-benzoxazin-6-yl)methyl]amino}hexanoic acid], the pIC50 at h-Sortilin is 6.59. At Sortilin (Form of Compound Free acid), this compound came in with a Kd of 164 nM.

On to `C[C@H](N[C@@H](CCC(C)(C)C)C(=O)O)c1ccc2c(c1)OCCO2` [Example 61], for which the negative-log IC50 (pIC50) at h-Sortilin was 6.46. The same compound had a Kd at Sortilin (Form of Compound Free acid) of 144 nM.

For the compound `CC(C)(C)CC[C@H](NCc1ccc2c(c1)NCCC2)C(=O)O` [Example 17, (2S)-5,5-dimethyl-2-{[(1,2,3,4-tetrahydroquinolin-7-yl)methyl]amino}hexanoic acid], the pIC50 at h-Sortilin is 6.72. For the same compound, the Kd at Sortilin (Form of Compound Free acid) came out at 97.3 nM.

For the compound `CC(C)(C)CC[C@H](N[C@@H](c1ccc2c(c1)CCC2)C(F)(F)F)C(=O)O` [Example 49], the pIC50 at h-Sortilin is 6.66. The same compound displayed a dissociation constant Kd at Sortilin (Form of Compound Free acid) of 504 nM.

For `C[C@@H](N[C@@H](CCC(C)(C)C)C(=O)O)c1ccc2c(c1)OCCO2` [Example 51], the pIC50 on h-Sortilin was 6.55. Further, the Kd at Sortilin (Form of Compound Free acid) amounted to 181 nM.

Consider `CC(C)(C)CC[C@H](NCc1ccc(Oc2ccccc2)nc1)C(=O)O` [Example 38, (2S)-5,5-dimethyl-2-{[(6-phenoxypyridin-3-yl)methyl]amino}hexanoic acid], for which the pIC50 at h-Sortilin is 6.47. Moreover, the Kd on Sortilin (Form of Compound Mesylate salt) amounted to 49.1 nM.

For the compound `CC(C)(C)CC[C@H](NCc1ccc2c(c1)OCO2)C(=O)O` [Example 68], at h-Sortilin, the pIC50 was 6.07. The same compound displayed a Kd at Sortilin (Form of Compound Free acid) of 163 nM.

In the case of `CN1C(=O)CCc2ccc(CN[C@@H](CCC(C)(C)C)C(=O)O)cc21` [Example 28, (2S)-5,5-dimethyl-2-{[(1-methyl-2-oxo-1,2,3,4-tetrahydroquinolin-7-yl)methyl]amino}hexanoic acid], the pIC50 at h-Sortilin is 6.66. In addition, on Sortilin (Form of Compound Free acid), binding was put at a Kd of 317 nM.

With `CC(C)(C)CC[C@H](NCc1cnc2c(c1)CCCC2)C(=O)O` [Example 7, (S)-5,5-dimethyl-2-(((5,6,7,8-tetrahydroquinolin-3-yl)methyl)amino)hexanoic acid], the pIC50 at h-Sortilin is 6.85. This compound had an equilibrium dissociation constant (Kd) on Sortilin (Form of Compound Free acid) of 264 nM.

As for `CC(C)(C)CC[C@H](NCc1cccc2c1CCCO2)C(=O)O` [Example 72], on h-Sortilin, the pIC50 was 5.97. At Sortilin (Form of Compound Free acid), this compound registered a Kd of 613 nM.

Turning to `C[C@@H](N[C@@H](CCC(C)(C)C)C(=O)O)c1ccc2c(c1)N(C)CCC2` [Example 48], on Sortilin (Form of Compound Free acid), binding was characterised by a dissociation constant (Kd) of 46.2 nM.

With `C[C@@H](N[C@@H](CCC(C)(C)C)C(=O)O)c1ccc2c(c1)OCO2` [Example 54], the pIC50 on h-Sortilin is 6.42. Moreover, on Sortilin (Form of Compound Free acid), the Kd came out at 105 nM.

As for `CC(C)(C)CC[C@H](N[C@@H](c1ccc2c(c1)OCCC2)C(F)F)C(=O)O` [Example 46], the pIC50 on h-Sortilin was 6.89. In addition, binding at Sortilin (Form of Compound Free acid) was characterised by a dissociation constant (Kd) of 43.4 nM.

As for `CN1C(=O)COc2cc(CN[C@@H](CCC(C)(C)C)C(=O)O)ccc21` [Example 25, (2S)-5,5-dimethyl-2-{[(4-methyl-3-oxo-3,4-dihydro-2H-1,4-benzoxazin-7-yl)methyl]amino}hexanoic acid], the pIC50 at h-Sortilin was 6.02. On Sortilin (Form of Compound Free acid), the Kd is 563 nM and 158 nM.

In the case of `C[C@@H](N[C@@H](CCC(C)(C)C)C(=O)O)c1ccc2c(c1)CCC2` [Example 13], the pIC50 at h-Sortilin was 6.68. Further, the dissociation constant Kd on Sortilin (Form of Compound Mesylate salt) came to 57.5 nM.

As for `CC(C)(C)CC[C@H](NCc1cnc2c(c1)CCC2)C(=O)O` [Example 8, (2S)-2-[({5H,6H,7H-cyclopenta[b]pyridin-3-yl}methyl)amino]-5,5-dimethylhexanoic acid], the pIC50 on h-Sortilin is 6.30. On Sortilin (Form of Compound Free acid), this compound gave an equilibrium dissociation constant (Kd) of 191 nM.

In the case of `C[C@H](N[C@@H](CCC(C)(C)C)C(=O)O)c1ccc(Oc2ccccc2)nc1` [Example 44], the pIC50 at h-Sortilin was 6.13. On Sortilin (Form of Compound Free acid), this compound gave a Kd of 127 nM.

Regarding `CC(C)(C)CC[C@H](NCc1ccnc(Oc2ccccc2)c1)C(=O)O` [Example 76], the pIC50 on h-Sortilin is 6.64. The same compound returned a dissociation constant (Kd) on Sortilin (Form of Compound Free acid) of 58.3 nM.

`CC(C)(C)CC[C@H](NCc1ccc2c(c1)CCC2)C(=O)O` [Example 6, (2S)-2-{[(2,3-dihydro-1H-inden-5-yl)methyl]amino}-5,5-dimethylhexanoic acid]: the pIC50 on h-Sortilin is 6.68. At Sortilin (Form of Compound Free acid), this compound registered a Kd of 117 nM.

Regarding `C[C@H](N[C@@H](CCC(C)(C)C)C(=O)O)c1ccc2c(c1)CCC2` [Example 14], the negative logarithm of the IC50 (pIC50) at h-Sortilin was 6.55. The equilibrium dissociation constant (Kd) on Sortilin (Form of Compound Mesylate salt) came to 35.1 nM.

As for `C[C@@H](N[C@@H](CCC(C)(C)C)C(=O)O)c1ccc(Oc2ccccc2)nc1` [Example 43], on h-Sortilin, the pIC50 was 6.39. Binding on Sortilin (Form of Compound Free acid) was characterised by a dissociation constant (Kd) of 68.3 nM.
